From US20170050957A1, “4-AMINO-6-(HETEROCYCLIC)PICOLINATES AND 6-AMINO-2-(HETEROCYCLIC)PYRIMIDINE-4-CARBOXYLATES AND THEIR USE AS HERBICIDES” (Dow AgroSciences LLC, priority 2013, published 2017)
Like-named read-outs stand apart in the source and are kept apart here.

Key:
[1] = test system: Key Broadleaf Weed and Crop Species; assay: Post-emergent Test II herbicidal activity (Table 15); type: in vivo; conditions: post-emergence, 336 h, 14 d; for pest or weed control at 35 g/ha: 35 g ai/ha; for pest or weed control at 70 g/ha: 70 g ai/ha; for pest or weed control at 140 g/ha: 140 g ai/ha
Method in brief: (§1)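 Plants at first-second true leaf stage, grown 7-21 d in greenhouse (~15 h photoperiod, 23-29 °C day), were track-sprayed at 187 L/ha with compound in acetone/DMSO/water/isopropanol/crop oil/Triton X-155 at a high rate plus 1/2× to 1/16× dilutions. Injury scored visually after 14 d versus untreated plants, 0 (none) to 100% (complete kill).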

[2] = test system: Key Grass and Sedge Weeds as well as Grass Crops; assay: Post-emergent Test II herbicidal activity (Table 16); type: in vivo; conditions: post-emergence, 336 h, 14 d; for pest or weed control at 35 g/ha: 35 g ai/ha; for pest or weed control at 70 g/ha: 70 g ai/ha; for pest or weed control at 140 g/ha: 140 g ai/ha
Method in brief: as §1

[3] = Abutilon theophrasti, velvetleaf (Abutilon theophrasti), read-out: Visual Growth Reduction (%) 14 Days After Application, ABUTH
[4] = Amaranthus retroflexus, redroot pigweed (Amaranthus retroflexus), read-out: Visual Growth Reduction (%) 14 Days After Application, AMARE
[5] = Brassica napus, oilseed rape, canola (Brassica napus), read-out: Visual Growth Reduction (%) 14 Days After Application, BRSNN
[6] = Chenopodium album, lambsquarters (Chenopodium album), read-out: Visual Growth Reduction (%) 14 Days After Application, CHEAL
[7] = Euphorbia heterophylla, wild poinsettia (Euphorbia heterophylla), read-out: Visual Growth Reduction (%) 14 Days After Application, EPHHL
[8] = Helianthus annuus, sunflower (Helianthus annuus), read-out: Visual Growth Reduction (%) 14 Days After Application, HELAN
[9] = Cyperus esculentus, yellow nutsedge (Cyperus esculentus), read-out: Visual Growth Reduction (%) 14 Days After Application, CYPES
[10] = Echinochloa crus-galli, barnyardgrass (Echinochloa crus-galli), read-out: Visual Growth Reduction (%) 14 Days After Application, ECHCG
[11] = Oryza sativa, rice (Oryza sativa), read-out: Visual Growth Reduction (%) 14 Days After Application, ORYSA
[12] = Setaria faberi, giant foxtail (Setaria faberi), read-out: Visual Growth Reduction (%) 14 Days After Application, SETFA
[13] = Triticum aestivum, wheat, spring (Triticum aestivum), read-out: Visual Growth Reduction (%) 14 Days After Application, TRZAS
[14] = Zea mays, maize, corn (Zea mays), read-out: Visual Growth Reduction (%) 14 Days After Application, ZEAMX

Row | Structure (SMILES) | pest or weed control at 35 g/ha [1, 3] [%] | pest or weed control at 70 g/ha [1, 3] [%] | pest or weed control at 140 g/ha [1, 3] [%] | pest or weed control at 35 g/ha [1, 4] [%] | pest or weed control at 70 g/ha [1, 4] [%] | pest or weed control at 140 g/ha [1, 4] [%] | pest or weed control at 35 g/ha [1, 5] [%] | pest or weed control at 70 g/ha [1, 5] [%] | pest or weed control at 140 g/ha [1, 5] [%] | pest or weed control at 35 g/ha [1, 6] [%] | pest or weed control at 70 g/ha [1, 6] [%] | pest or weed control at 140 g/ha [1, 6] [%] | pest or weed control at 35 g/ha [1, 7] [%] | pest or weed control at 70 g/ha [1, 7] [%] | pest or weed control at 140 g/ha [1, 7] [%] | pest or weed control at 35 g/ha [1, 8] [%] | pest or weed control at 70 g/ha [1, 8] [%] | pest or weed control at 140 g/ha [1, 8] [%] | pest or weed control at 35 g/ha [2, 9] [%] | pest or weed control at 70 g/ha [2, 9] [%] | further results
1 | COC(=O)c1nc(-c2cc3occc3cc2F)c(F)c(N)c1Cl [Compound 2.10] | 60 to 74 | 60 to 74 | 85 to 94 | 85 to 94 | 95 to 100 | 95 to 100 | 30 to 44 | 60 to 74 | 75 to 84 | 85 to 94 | 95 to 100 | 85 to 94 | 95 to 100 | 95 to 100 | 95 to 100 | 75 to 84 | 85 to 94 | 95 to 100 | 0 to 29 | 0 to 29 | pest or weed control at 140 g/ha [2, 9]: 30 to 44%; pest or weed control at 35 g/ha [2, 10]: 60 to 74%; pest or weed control at 70 g/ha [2, 10]: 60 to 74%; pest or weed control at 140 g/ha [2, 10]: 85 to 94%; pest or weed control at 35 g/ha [2, 11]: 0 to 29%; pest or weed control at 70 g/ha [2, 11]: 30 to 44%; pest or weed control at 140 g/ha [2, 11]: 30 to 44%; pest or weed control at 35 g/ha [2, 12]: 60 to 74%; pest or weed control at 70 g/ha [2, 12]: 60 to 74%; pest or weed control at 140 g/ha [2, 12]: 75 to 84%; pest or weed control at 35 g/ha [2, 13]: 0 to 29%; pest or weed control at 70 g/ha [2, 13]: 30 to 44%; pest or weed control at 140 g/ha [2, 13]: 60 to 74%; pest or weed control at 35 g/ha [2, 14]: 0 to 29%; pest or weed control at 70 g/ha [2, 14]: 30 to 44%; pest or weed control at 140 g/ha [2, 14]: 45 to 59%; melting point: 109 °C
2 | COC(=O)c1nc(-c2ccc3ccoc3c2F)cc(N)c1Cl [Compound 2.11] | 95 to 100 | 95 to 100 | 95 to 100 | 95 to 100 | 95 to 100 | 95 to 100 | 75 to 84 | 85 to 94 | 95 to 100 | 95 to 100 | 95 to 100 | 95 to 100 | 95 to 100 | 95 to 100 | 95 to 100 | 45 to 59 | 60 to 74 | 75 to 84 | 0 to 29 | 0 to 29 | pest or weed control at 140 g/ha [2, 9]: 30 to 44%; pest or weed control at 35 g/ha [2, 10]: 85 to 94%; pest or weed control at 70 g/ha [2, 10]: 95 to 100%; pest or weed control at 140 g/ha [2, 10]: 95 to 100%; pest or weed control at 35 g/ha [2, 11]: 0 to 29%; pest or weed control at 70 g/ha [2, 11]: 0 to 29%; pest or weed control at 140 g/ha [2, 11]: 0 to 29%; pest or weed control at 35 g/ha [2, 12]: 45 to 59%; pest or weed control at 70 g/ha [2, 12]: 60 to 74%; pest or weed control at 140 g/ha [2, 12]: 75 to 84%; pest or weed control at 35 g/ha [2, 13]: 0 to 29%; pest or weed control at 70 g/ha [2, 13]: 0 to 29%; pest or weed control at 140 g/ha [2, 13]: 30 to 44%; pest or weed control at 35 g/ha [2, 14]: 45 to 59%; pest or weed control at 70 g/ha [2, 14]: 60 to 74%; pest or weed control at 140 g/ha [2, 14]: 85 to 94%; melting point: 148 °C
3 | COC(=O)c1nc(-c2cc3occc3cc2F)cc(N)c1Cl [Compound 2.12] | 85 to 94 | 95 to 100 | 95 to 100 | 95 to 100 | 95 to 100 | 95 to 100 | 75 to 84 | 85 to 94 | 95 to 100 | 95 to 100 | 95 to 100 | 95 to 100 | 95 to 100 | 95 to 100 | 95 to 100 | 30 to 44 | 60 to 74 | 60 to 74 | 0 to 29 | 0 to 29 | pest or weed control at 140 g/ha [2, 9]: 0 to 29%; pest or weed control at 35 g/ha [2, 10]: 95 to 100%; pest or weed control at 70 g/ha [2, 10]: 95 to 100%; pest or weed control at 140 g/ha [2, 10]: 95 to 100%; pest or weed control at 35 g/ha [2, 11]: 0 to 29%; pest or weed control at 70 g/ha [2, 11]: 0 to 29%; pest or weed control at 140 g/ha [2, 11]: 0 to 29%; pest or weed control at 35 g/ha [2, 12]: 45 to 59%; pest or weed control at 70 g/ha [2, 12]: 60 to 74%; pest or weed control at 140 g/ha [2, 12]: 60 to 74%; pest or weed control at 35 g/ha [2, 13]: 0 to 29%; pest or weed control at 70 g/ha [2, 13]: 0 to 29%; pest or weed control at 140 g/ha [2, 13]: 0 to 29%; pest or weed control at 35 g/ha [2, 14]: 0 to 29%; pest or weed control at 70 g/ha [2, 14]: 30 to 44%; pest or weed control at 140 g/ha [2, 14]: 60 to 74%; melting point: 130 °C
